Test system: type V secretion system-mediated release of the cytotoxin VacA
Assay type: cell-based, H. pylori

Compound | type V secretion system-mediated release of VacA into cell culture supernatants
O=C(O)[C@@H]1CSc2c(C3CC3)c(Cc3cccc4ccccc34)cc(=O)n21 [Compound C10, (3R)-8-cyclopropyl-7-(naphthalen-1-ylmethyl)-5-oxo-3,5-dihydro-2H-thiazolo[3,2-a]pyridine-3-carboxylic acid] | did not impair
COc1ccc(Cc2cc(=O)n3c(c2C2CC2)SC[C@H]3C(=O)O)c2ccccc12 [KSK85, (3R)-7-[(4-methoxynaphthalen-1-yl)methyl]-8-cyclopropyl-5-oxo-2,3-dihydro-5H-[1,3]thiazolo[3,2-a]pyridine-3-carboxylic acid] | did not impair

Source: patent US20170233409A1, “TYPE IV SECRETION SYSTEM INHIBITORS” (priority 2016, published 2017)
